# According to US20130004581A1, “CONTROLLING UPTAKE BY CELLS” (Ramot at Tel-Aviv University Ltd., priority 2010, published 2013):
# Experiments:
# COS 5-7 cells [1] = test: Uptake after one minute of electric pulse train (EPT) in three-compartment device, FACS; type: cell-based, African green monkey; conditions: for Folds Uptake mean: electric field 200 mA/cm^2; for Folds Uptake mean / Folds Uptake Fold: 1 min, 10 μM Dextran-FITC; for Folds Uptake Fold: relative to unexposed cells
# Description: The values in the tables are shown as folds relative to the uptake in cells unexposed to any of the treatments.
# Exposure of cells to low-intensity trains of unipolar rectangular voltage pulses was carried in a three-compartment exposure set-up where the anode and cathode were connected to an electric pulse generator (Grass S44 Stimulator). The exposure set-up consisted of a rectangular chamber made from polystyrene, 15 mm long, 10 mm wide, with 0.5 cm^2 area platinum electrodes positioned on the extreme sides (see FIG. 15). The chamber is divided by two porous membranes (PolyEtherSulfon, 0.8 μm pores, 200 μm depth), into three distinct and equal compartments: anode, cathode and center ones. The electric field parameters applied were monitored on line by recording the voltage and the current (by means of a wide band current probe, Pearson) on an oscilloscope. Typically, a cell suspension (1*10^6 cells/ml) is exposed to a train of electric pulses consisting of unipolar rectangular pulses with duration of 180 μs, frequency of 500 Hz for the total time of exposure of one minute.
# Cells (COS 5-7) were harvested, re-suspended in DMEM (1 mg/ml glucose, 5% FCS), and incubated (37°, 5% CO2) as designated by the experiment. For uploading the cells with either H2DCF-DA (20 μM) or Bis-DHA (1 mM) incubation lasted 90 minutes. When no pre-treatments were required, the cells were kept in the DMEM for 30 minutes. Following incubation, the cells were centrifuged at 400g for 1 min, the solution aspirated, and cells re-suspended in HBSS exposure media.
# Cell suspensions were centrifuged (400g for one minute), their solutions aspirated and they were re-suspended with 0.5 ml DMEM-H supplemented with 10u/ml dextranase (Sigma-Aldrich) for 10 minutes at RT. Cells were centrifuged again; their solution aspirated and they were re-suspended with 0.2 ml DMEM-H. PI (25 μg/ml) as a label for permeabilized cells and tryphan blue (0.01% w/v) as a fluorescence quenching agent for extracellular FITC (36) were added to each sample shortly before analysis
# Flow cytometry analysis was carried out by FACSort (Becton @ Dickson, San Jose, Calif.), employing a 488-nm argon laser excitation. […] Ten thousand cells were examined for each sample and data were collected in the list mode. The analysis of flow cytometry data was performed using WINMDI 2.9 software (Joe Trotter, The Scripps Research Institute). For each sample the geometrical mean was calculated without including PI stained cells. Cell intensity was determined as fold of induction relative to cells' constitutive uptake.
# HaCaT cells = test: Proton induced uptake (PIU) in HaCaT cells, FACS; type: cell-based, human; conditions: pH 5.25; pulse label for last 5 minutes
# Description: FIG. 6 is a chart showing PIU of molecules different by size and charge, in accordance with some embodiments of the invention. Hacat cultures were exposed to solutions of pH 5.2 or pH 7.4 for 5 minutes period, in the presence of different fluorescence molecules (All at 25 μM concentration). FACS analysis results (FL1, geometrical mean±SD) for the cell cultures exposed to pH 5.2 are presented as fold induction relative to results obtained for cells exposed to pH 7.4. This can be used, in some embodiments of the invention, to assess effect of molecule size and charge on uptake.
# FIGS. 7A-7B are charts showing the comparison of PIU in adherent and suspended HaCaT cells, in accordance with some embodiments of the invention. For FIG. 7A, HaCaT cells were tested either at their adherent state, or following harvest at a suspended state. […] FACS analyses (FL1) in terms of geometrical mean±SD are presented as fold induction relative to the constitutive uptake at physiological pH 7.4. n=9 in 3 independent experiments. For FIG. 7B, HaCaT Cells were cultivated at low, medium or high cell density. […] The cultures were harvested and undergone FACS analyses (FL1) in terms of geometrical mean±SD and are presented as fold induction relative to the constitutive uptake of low density cultures. Statistical significance was tested against the confluent culture, n=9 in 3 independent experiments. In the charts, * indicates a t-test p<0.05; and ** indicates a t-test p<0.01. This can be used, in some embodiments of the invention, to assess effect of cell membrane rigidity and/or tissue structure on uptake.
# FIGS. 12A-12B are a chart and images which show the relative change of PIU by modifiers of actin cytoskeleton organization, in accordance with some embodiments of the invention. […].
# Caco2/TC7 cells = test: Proton induced uptake (PIU) in Caco2/TC7 cells, FACS; type: cell-based; conditions: pH 5; 5 minutes; P<0.001
# Description: Caco-2 cells were cultivated, and were harvested when reaching 80% confluence by the use of trypsin-EDTA. The cell suspensions were immediately diluted in full medium (DMEM with 4.5 mg/ml glucose, 10% FCS), centrifuged and re-suspended in recovery medium (HBSS or PBS).
# Once exposure is terminated the suspension is transferred to a small vial where it is either incubated at 37° C. or immediately cooled down to 4° C. All samples are collected together on ice and then simultaneously analyzed.
# Acidification is imposed by supplementing the suspension with 10 mM MES buffer and the concentrations of HCl required for reaching the experimental pH level.
# The cells are washed by being centrifuged, re-suspended with fresh DMEM (without phenol-red or FCS), incubated at room temperature with probe specific digestive enzymes, where appropriate, centrifuged and washed again.
# For FACS analysis, Trypan-blue (0.01%) and PI (2 μg/ml) are added to the cells suspension to quench residual extracellular fluorescence and stain necrotic cells, respectively.
# COS 5-7 cells [2] = test: Proton induced uptake (PIU) in adherent COS 5-7 cultures, 5 minutes, FACS; type: cell-based, African green monkey; conditions: pH 5, P<0.001
# Description: Uptake, based on flow cytometry, is plotted as function of the external pH from 3 independent experiments per cell line.
# FIG. 1A is shown the Extent of uptake in terms of FITC intensity geometrical mean±SD is presented as fold induction relative to the constitutive uptake at physiological pH 7.4. In FIG. 1B is shown the PI (a necrotic cell marker) stained cells fraction±SD (%) relative to unexposed control population. In FIG. 1C is shown the FITC geometrical mean±SD presented as fold induction relative to the constitutive uptake at physiological pH 7.4.
# erythrocytes (RBCs) = test: Proton induced uptake and efflux in erythrocytes (RBCs), flow cytometry; type: cell-based
# Description: As shown, PIU in erythrocytes depends on external pH in a constant rate. […] Flow cytometry analyses include FITC intensity geometrical mean±SD presented as fold induction relative to background. n=9 in 3 independent experiments.
# RBCs were exposed to external pH 5.4 for time durations of 10, 15, 30, 45 and 60 minutes. […] Flow cytometry analyses in terms of geometrical mean±SD are presented as fold induction relative the fluorescent intensity in the first group (10 min). No statistical difference is found in PIU rate for the different groups (p >0.05 by one way ANOVA, n=9 in 3 independent experiments).
# Flow cytometry analyses include FITC intensity geometrical mean±SD presented as fold induction relative to background. n=9 in 3 independent experiments.
# The cells were washed and divided into 2 groups, suspended in fresh solution of either pH 7.4 or pH 5.4. Cells from each group were incubated for durations of 10, 20, 30, 45 and 60 minutes, before being analyzed by flow cytometry. Results given in terms of geometrical mean±SD are presented as fold induction relative to cells analyzed immediately following exposure to low pH. n=8 in 2 independent experiments.
# Following treatment the cells were washed in PBS-G and analyzed by flow cytometry. Results are presented as geometrical mean of FITC intensity±SD for 50,000 cells per sample.
# This apparent saturation may be attributed to a competitive efflux process. […] Next, the cells were washed and re-suspended in fresh PBS-G of either pH 7.4 or 5.4, in the absence of dextran and then incubated at 37° C. for durations of 10, 20, 30, 45 and 60 minutes, followed by flow cytometry analysis (FIG. 32B). Dextran concentrations in RBCs incubated under physiological conditions (pH 7.4) suffers some gradual 20% decrease in value for 60 minutes after PIPC(P<0.05, one tail t-test). However, when RBCs are incubated at pH 5.4, the dextran concentration decline rapidly during the first 10 minutes, losing 50% of their initial value after 20 minutes and continue to decrease at a declining rate for the rest of the period monitored. It appears that long exposure of RBCs to low pH inflict some damage to the cells ability to retain the uptake cargo molecule (FIG. 32b). In an exemplary embodiment of the invention, RBCs are instead subjected to a pulsed treatment regime. […] In an exemplary embodiment of the invention, pulsed uptake is used to avoid/reduce causing leakage in cells and thus reduce efflux. Optionally or alternatively, cells that are sensitive to low pH can be treated. For example, one hour exposures separated by two hour rest periods may be used for siRNA transfection of pH-sensitive cells. […]
substance,measurement,setting,value
Dextran-FITC,Folds Uptake mean,COS 5-7 cells [1]; 60 mM HEPES in HBSS,51.98 folds
same,Folds Uptake mean,COS 5-7 cells [1]; 70 mM HEPES in HBSS,48.84 folds
same,Folds Uptake mean,COS 5-7 cells [1]; 80 mM HEPES in HBSS,14.86 folds
same,Folds Uptake mean,COS 5-7 cells [1]; 90 mM HEPES in HBSS,12.81 folds
same,Folds Uptake mean,COS 5-7 cells [1]; 100 mM HEPES in HBSS,10.06 folds
same,Folds Uptake mean,COS 5-7 cells [1]; 120 mM HEPES in HBSS,4.613 folds
same,Folds Uptake mean,COS 5-7 cells [1]; 150 mM HEPES in HBSS,3.106 folds
same,Folds Uptake Fold,"COS 5-7 cells [1]; 10 V/cm, 80 mA/cm^2",1.62 folds
same,Folds Uptake Fold,"COS 5-7 cells [1]; 13.3 V/cm, 120 mA/cm^2",2.449 folds
same,Folds Uptake Fold,"COS 5-7 cells [1]; 16.6 V/cm, 160 mA/cm^2",6.017 folds
same,Folds Uptake Fold,"COS 5-7 cells [1]; 20 V/cm, 80 mA/cm^2",1.824 folds
same,Folds Uptake Fold,"COS 5-7 cells [1]; 20 V/cm, 120 mA/cm^2",3.015 folds
same,Folds Uptake Fold,"COS 5-7 cells [1]; 20 V/cm, 160 mA/cm^2",5.476 folds
same,Folds Uptake Fold,"COS 5-7 cells [1]; 20 V/cm, 200 mA/cm^2, 100 mM HEPES",9.134 folds
same,Folds Uptake Fold,"COS 5-7 cells [1]; 26.6 V/cm, 200 mA/cm^2",11.73 folds
same,Folds Uptake Fold,"COS 5-7 cells [1]; 33.3 V/cm, 200 mA/cm^2",10.49 folds
same,Folds Uptake Fold,"COS 5-7 cells [1]; 46.6 V/cm, 80 mA/cm^2",1.694 folds
same,Folds Uptake Fold,"COS 5-7 cells [1]; 46.6 V/cm, 160 mA/cm^2",6.34 folds
same,Folds Uptake Fold,"COS 5-7 cells [1]; 66.6 V/cm, 120 mA/cm^2",3.447 folds
same,increase in cellular uptake in the anodic compartment,"COS 5-7 cells [1]; train of electric pulses 20V/cm, 200 mA/cm^2, anodic compartment only, relative to constitutive uptake",10 fold
same,"initial PIU rate of adherent cultures, folds lower than suspended cells",HaCaT cells,2.5 folds
same,dextran concentration relative to HT29 cells,Caco2/TC7 cells,2 folds
same,dextran concentration relative to HT29 cells,COS 5-7 cells [2],2 folds
same,external pH at which uptake is significant relative to autofluorescence at pH 7.4,"erythrocytes (RBCs); 70 kD dextran-FITC 10 μM, 5 minutes, P<0.05",< 6 pH
same,loss of initial intracellular dextran concentration after loading,"erythrocytes (RBCs); incubated at pH 5.4, 37° C., after 20 minutes",50%
same,decrease of intracellular dextran concentration after loading,"erythrocytes (RBCs); incubated at pH 7.4, 37° C., 60 minutes after 10 minutes loading at pH 5.4",20%
same,intracellular concentration after three cycles of 10 minutes exposure versus one exposure of 30 minutes,"erythrocytes (RBCs); low pH solution, cycles separated by washing and 10 minutes in PBS-G",higher concentration
